“And” between values parts separate entries of the source, which are not always exact repeats. Equal entries are not always repeated.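 Cultured in 96-well plates, cells were exposed to test compound for 48 hours across five concentrations. The concentration for 50% growth inhibition is given as GI50. TGI marks complete inhibition of growth.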
Columns and labels:
Experiment in all cases: NCI anticancer screen, dose series, 48 h
HCT-15 colon = tested on: HCT-15 colon
HCT-116 colon = tested on: HCT-116 colon
SR leukemia = tested on: SR leukemia
U251 CNS = tested on: U251 CNS
KM12 colon = tested on: KM12 colon
MCF7 breast = tested on: MCF7 breast
CCRF-CEM leukemia = tested on: CCRF-CEM leukemia
OVCAR-4 ovarian = tested on: OVCAR-4 ovarian
HS 578T breast = tested on: HS 578T breast
K-562 leukemia = tested on: K-562 leukemia

In the case of CC(C)C[C@H](NC(=O)[C@@H](NC(=O)c1cccc(-c2ccccc2)n1)[C@@H](C)O)B(O)O, the GI50 (HCT-15 colon) is reported as 17.6 nM and < 18.2 nM, the TGI (HCT-15 colon) is reported as 107 nM and the GI50 (HCT-116 colon) is reported as 3.44 nM. For the same compound, the TGI (HCT-116 colon) was 14.2 nM and 12.7 nM, the GI50 (SR leukemia) was 3.01 nM and the TGI (SR leukemia) was 8.43 nM and < 102 nM. For the same compound, the GI50 (U251 CNS) was 25.1 nM and 17.6 nM, the TGI (U251 CNS) was 1920 nM and the GI50 (KM12 colon) was 13.2 nM and 12.7 nM. The TGI (KM12 colon) was 67.2 nM and 22 nM, the GI50 (MCF7 breast) was 4.25 nM and the TGI (MCF7 breast) was 36800 nM. The TGI (CCRF-CEM leukemia) was greater than 5160 nM, the GI50 (OVCAR-4 ovarian) was 12.4 nM and 18.5 nM and the TGI (OVCAR-4 ovarian) was 79000 nM. The GI50 (HS 578T breast) was 4.04 nM and < 10.7 nM, the TGI (HS 578T breast) was greater than 100000 nM and the GI50 (K-562 leukemia) was 6.49 nM and 19 nM. The TGI (K-562 leukemia) was 30800 nM.

For COc1cc(C2CC(=O)Nc3c2ccc2ccccc32)cc(Br)c1OC (centres undefined), the GI50 (HCT-15 colon) was 445 nM, the TGI (HCT-15 colon) was greater than 90500 nM and the GI50 (HCT-116 colon) was 373 nM. The TGI (HCT-116 colon) was greater than 34700 nM, the GI50 (SR leukemia) was 350 nM and the TGI (SR leukemia) was 16700 nM. For the same compound, the GI50 (U251 CNS) was 433 nM, the TGI (U251 CNS) was greater than 37900 nM and the GI50 (KM12 colon) was 532 nM. For the same compound, the TGI (KM12 colon) was greater than 41200 nM, the GI50 (MCF7 breast) was 343 nM and the TGI (MCF7 breast) was greater than 40600 nM. The GI50 (CCRF-CEM leukemia) was 292 nM, the TGI (CCRF-CEM leukemia) was 1410 nM and the GI50 (OVCAR-4 ovarian) was 3640 nM. It also gave a TGI (OVCAR-4 ovarian) greater than 100000 nM, a GI50 (HS 578T breast) of 376 nM and a TGI (HS 578T breast) greater than 23200 nM. For the same compound, the GI50 (K-562 leukemia) was 349 nM and the TGI (K-562 leukemia) was greater than 75700 nM.

With Cc1cc(C)c(S(=O)(=O)N(CCc2cccc(Br)c2)Cc2ccc(-c3cccc(S(C)(=O)=O)c3)cc2)c(C)c1 the GI50 (HCT-15 colon) was greater than 100000 nM, the TGI (HCT-15 colon) was greater than 100000 nM and the GI50 (HCT-116 colon) was greater than 100000 nM. It also gave a TGI (HCT-116 colon) greater than 100000 nM, a GI50 (SR leukemia) greater than 100000 nM and a TGI (SR leukemia) greater than 100000 nM. For the same compound, the GI50 (U251 CNS) was greater than 100000 nM, the TGI (U251 CNS) was greater than 100000 nM and the GI50 (KM12 colon) was greater than 100000 nM. It also gave a TGI (KM12 colon) greater than 100000 nM, a GI50 (MCF7 breast) greater than 100000 nM and a TGI (MCF7 breast) greater than 100000 nM. It also gave a GI50 (CCRF-CEM leukemia) greater than 100000 nM, a TGI (CCRF-CEM leukemia) greater than 100000 nM and a GI50 (OVCAR-4 ovarian) greater than 100000 nM. The TGI (OVCAR-4 ovarian) was greater than 100000 nM, the GI50 (HS 578T breast) was greater than 100000 nM and the TGI (HS 578T breast) was greater than 100000 nM. It also gave a GI50 (K-562 leukemia) greater than 100000 nM and a TGI (K-562 leukemia) greater than 100000 nM.

— PubChem BioAssay (NCI)
